Tests used:
panel of ESFT cell lines = assay: Cell growth (WST), panel of ESFT cell lines; format: cell-based; details: 72 h, 3 days
Protocol: (§1) FIG. 33 provides data showing YK-4-279 is potent and specific inhibitor of ESFT. […] Cell number was measured by MTT or WST reduction after seven days in culture. […] FIG. 33D cell lines expressing EWS-FLI1 compared to non-EWS-FLI1 malignant cell lines following 3 days in culture to establish the IC50 using WST assay. […] Graph plots level of fluorescence in treated divided by untreated lysate. […] Scale bar equals 200 μm.

ES925 = assay: Cell growth, primary ESFT line ES925; format: cell-based; details: Homo sapiens, 72 h; 3 days; read-out: anti-proliferative IC50
Protocol: as §1

[1] = test system: non-EWS-FLI1 cancer cell lines and non-transformed cell lines (HFK, HEC, HEK293); assay: Caspase-3 activity, non-EWS-FLI1 cancer and non-transformed cell lines; format: cell-based; details: 10 μM, 24 hours
Protocol: as §1
(§2) Cells were treated for 24 hours with 10 μM YK-4-279. The Caspase-3 substrate DEVD-AMC was incubated with equal amounts of protein lysate and fluorescence from cleaved substrate measured in a fluorimeter. TC32 and non-transformed cells HEK-293, HFK, and HEC were treated for 6 hours with high dose (50 μM) YK-4-279. DAPI stained cells were photographed at 600× using inverted fluorescence microscope.

[2] = test system: non-transformed keratinocytes (HFK) and ectocervical cells (HEC); assay: Viability (WST), non-transformed HFK and HEC; format: cell-based; details: Keratinocyte, 72 h; treated for 3 days
Protocol: (§3) FIG. 39A provides data showing HEC and HFK, non-transformed endocervical cells and keritinocytes, treated with YK-4-279 for 72 hours and assayed for viability using WST reduction. FIG. 39B provides data showing TC71 cells treated for 16 hours with YK-4-279 or doxorubicin. Lysates were assayed for cleavage of AMC-DEVD by induced caspase-3 and fluorescence was measured. FIG. 39C provides data showing that RHA reduced TC71 cells were more resistant to YK-4-279 treatment than wild-type cells. FIG. 39D provides data showing an shRNA tet-inducible expression vector stably transfected into A673 (ESFT) cells to reduce EWS-FLI1 levels. FIG. 39E provides data showing that EWS-FLI1 reduced A673 cells were more resistant to YK-4-279 treatment than wild-type cells.

[3] = test system: ESFT xenografts (TC71 and CHP-100); assay: ESFT orthotopic xenografts treated with YK-4-279; format: in vivo, mice
Protocol: Xenografts were established with injection of either ESFT (CHP-100 or TC71) or Prostate cancer (PC3) cells. […] Single experiment growth curves depicted are representative of five independent experiments. […] Tumor volumes at day 14 after treatment initiation compared across 5 experiments (DMSO n=19, YK-4-279 n=25, p<0.0001, by Mann-Whitney test).
One million TC71 or CHP-100 cells in 100 μL HBSS were injected orthotopically into the gastrocnemius muscle of 4-8 week old SCID/bg mice (Taconic, Germantown, N.Y.). Prostate cancer xenografts were established by subcutaneous injection of 5 million PC3 cells into the flanks of 4-8 week old nude mice (Taconic). Mice were randomized to receive three times per week intraperitoneal injections of DMSO, YK-4-279 at 1.5 mg/dose when tumors were palpable. Each of the animal experiments was begun with 10 mice that were randomized into treatment and control groups when the tumors reached palpable size. In the control groups some tumors exceeded the IACUC maximal size (2 cm in any dimension) and were euthanized prior to day 14 and thus not included in the day 14 analysis (FIG. 6c). Tumor length and width were measured every 2-4 days and volume was calculated using the formula […] where D is the longest diameter and d is the shorter diameter. Xenograft studies were approved by the Memorial Sloan-Kettering Cancer Center Institutional Animal Care and Use Committee.

A673 cells = assay: YK-4-279 toxicity in shRNA-modified ESFT cells; format: cell-based; details: for IC50: Homo sapiens
Protocol: as §3
shRNA (short hairpin RNA) against RHA was purchased from Open Biosystems (Huntsville, Ala.) Both virus production and purification were done according to Open Biosystems protocols. (For designing shRNA see McIntyre G. J. et al. “Design and cloning strategies for constructing shRNA expression vectors.” BMC Biotechnol. (2006) 6:1)
In order to further support for the target specificity of YK-4-279 toxicity upon ESFT cells, the levels of each of the critical proteins were reduced by using shRNA in A673 cells42. […] When EWS-FLI1 was reduced using shRNA, the IC50 increased 10-fold from 0.5 μM to approximately 5 μM (FIG. 39D, FIG. 39E).

[4] = molecular target: T1, EWS-FLI1 and RHA in TC32 cells (Homo sapiens, UniProt Q01543+Q01844); assay: Co-precipitation of RHA with EWS-FLI1 from treated TC32 cells; format: cell-based
T1 construct: endogenous in cells; host or cells: TC32 (ESFT cell line)
T1 sequence (Q01844+Q01543 fused): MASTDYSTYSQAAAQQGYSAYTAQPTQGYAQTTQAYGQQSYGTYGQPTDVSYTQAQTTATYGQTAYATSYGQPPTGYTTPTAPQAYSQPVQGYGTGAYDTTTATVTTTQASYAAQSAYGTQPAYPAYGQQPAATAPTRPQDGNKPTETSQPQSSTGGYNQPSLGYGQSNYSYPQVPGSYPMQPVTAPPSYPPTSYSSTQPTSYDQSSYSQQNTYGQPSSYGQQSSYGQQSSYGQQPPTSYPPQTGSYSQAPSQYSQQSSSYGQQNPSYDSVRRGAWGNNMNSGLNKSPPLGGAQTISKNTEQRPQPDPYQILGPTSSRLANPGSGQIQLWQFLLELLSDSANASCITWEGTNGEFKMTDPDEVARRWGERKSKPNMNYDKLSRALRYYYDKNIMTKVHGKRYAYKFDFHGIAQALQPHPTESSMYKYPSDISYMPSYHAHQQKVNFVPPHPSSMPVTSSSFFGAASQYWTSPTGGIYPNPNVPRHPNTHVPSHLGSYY
Protocol: FIG. 32 provides data showing YK-4-279 reduces EWS-FLI1 functional activity. FIG. 32A concerns TC32 cells that were treated with YK-4-279 and resolved protein lysates and that were immunoblotted for co-precipitated RHA (top), EWS-FLI1 (middle), or total RHA (bottom).
Protein lysates and immunoprecipitations were performed as previously published (Uren et al (2005)). Recombinant GST-RHA (647-1075) was prepared from crude bacterial extracts without further purification.

[5] = test system: cell lines that lack EWSFLI1; assay: Cell growth (WST), cell lines that lack EWS-FLI1; format: cell-based; details: 72 h, 3 days
Protocol: as §1

HEK293, HFK, and HEC = assay: Nuclear fragmentation (DAPI), non-transformed cells; format: cell-based; details: 50 μM, 6 hours
Protocol: as §2

EWS-FLI1 = assay: Fluorescence polarization assay, FITC-E9R displacement; format: binding; details: 30 μM YK-4-279; 3.2 μM FITC-E9R
Protocol: The assay was performed in 20 mM Tris, 500 mM NaCl, 0.67 M imidazole, pH 7.4. The fluorescence polarization was analyzed in a QuantaMaster fluorimeter (Photon Technology International, Ford, West Sussex, UK) equipped with polymer sheet polarizers at an excitation wavelength of 495 nm and emission wavelength of 517 nm. […] (3.2 μM, as determined from saturated binding curve) with the same buffer and instrumental settings as described above.

[6] = test system: ESFT cell lines (TC32, A4573, TC71, and ES925); assay: Caspase-3 activity (DEVD-AMC cleavage), ESFT cell lines; format: cell-based; details: 24 hours
Protocol: as §2

[7] = test system: non-transformed HEK293 cells; assay: Cell growth, HEK293; format: cell-based; details: TC32 vs HEK293
Protocol: as §1

Question: For O=C(CC1(O)C(=O)Nc2c(Cl)ccc(Cl)c21)c1ccc(Cl)cc1 (centres unmarked) [NSC635437, 4,7-Dichloro-3-[2-(4-chlorophenyl)-2-oxoethyl]-3-hydroxyl-1,3-dihydro-2H-indol-2-one], which melting point is on record?
Answer: Its melting point is 194 to 196 °C.

Question: Which IC50 (panel of ESFT cell lines) does the source give for COc1ccc(C(=O)CC2(O)C(=O)Nc3c(Cl)ccc(Cl)c32)cc1 (centres unmarked) [YK-4-279, 4,7-Dichloro-3-hydroxy-3-[2-(4-methoxyphenyl)-2-oxoethyl]-1,3-dihydro-2H-indol-2-one] here?
Answer: Its IC50 is 500 to 2000 nM.

Question: What about the IC50 (ES925) of the same compound?
Answer: The IC50 was 1000 nM.

Question: And the “apoptosis (caspase-3 activation)” value [1]?
Answer: Its value is “none”.

Question: And the IC50 [2]?
Answer: Its IC50 is > 30000 nM.

Question: What about the tumor growth ([3]; 60-75 mg/kg) of the same compound?
Answer: Its tumor growth is “significantly reduced tumor growth”.

Question: What about the tumor growth rate ([3]; CHP-100, 1.5 mg/dose i.p. three times per week) of the same compound?
Answer: Its tumor growth rate is “reduced”.

Question: What about the “increase in caspase-3 activity in tumors compared to control animals” value ([3]; CHP-100 xenograft tumors, immunohistochemistry) of the same compound?
Answer: Its value is 3 fold.

Question: And the “overall response, tumor volumes at day 14, five experiments” value ([3]; TC71 and CHP-100, 1.5 mg/dose)?
Answer: Its value is “marked overall tumor reduction”.

Question: What about the “pathological analysis of treated animals” value ([3]; mouse, in vivo) of the same compound?
Answer: Its value is “did not show any signs of toxicity except changes related to IP injection”.

Question: What about the “increase of IC50 when EWS-FLI1 was reduced” value (A673 cells) of the same compound?
Answer: The value was 10 fold.

Question: What about the IC50 (A673 cells; A673, EWS-FLI1 reduced using shRNA) of the same compound?
Answer: Its IC50 is ~5000 nM.

Question: What about the IC50 (A673 cells; A673, RHA reduced cells (shRNA)) of the same compound?
Answer: Its IC50 is > 10000 nM.

Question: What about the IC50 (A673 cells; A673, before EWS-FLI1 reduction) of the same compound?
Answer: Its IC50 is 500 nM.

Question: And the IC50 (A673 cells; A673, control shRNA (targeting luciferase))?
Answer: Its IC50 is < 1000 nM.

Question: And the “EWS-FLI1 and RHA protein levels” value [4]?
Answer: The value was “did not directly affect EWSFLI1 nor RHA levels”.

Question: What about the “EWS-FLI1/RHA association in treated ESFT cells” value ([4]; by 10 μM) of the same compound?
Answer: The value was “dissociation of EWS-FLI1 from RHA”.

Question: What about the IC50 [5] of the same compound?
Answer: Its IC50 is > 25000 nM.

Question: And the “cell death (nuclear fragmentation)” value (HEK293, HFK, and HEC)?
Answer: Its value is “no cell death”.

Question: And the “displacement of FITC-E9R from EWS-FLI1” value (EWS-FLI1)?
Answer: Its value is “complete displacement”.

Question: And the caspase-3 activity ([6]; TC32 cells, dose range)?
Answer: The caspase-3 activity was “rose in a dose dependent fashion”.

Question: What about the caspase-3 activation ([6]; four ESFT cell lines, 10 μM) of the same compound?
Answer: The caspase-3 activation was “induced caspase-3 activity”.

Question: And the “difference in IC50, ESFT cells compared to HEK293” value [7]?
Answer: Its value is 10 fold.

From patent publication US9045415B2, “Targeting of EWS-FLI1 as anti-tumor therapy” (Georgetown University, priority 2006, dated 2015)
